Experimental data published in ChEMBL document CHEMBL4483862, “Open-source discovery of chemical leads for next-generation chemoprotective antimalarials” (2018).
pIC50: −log10 of the molar value.

Tested on: Plasmodium berghei
Assay: Luciferase/luciferin-expressing antifolate-resistant parasites were used to infect a culture of HepG2 cells that were pre-incubated with compounds. Infected hepatocytes emit light due to the luciferase reaction. Assay results are presented as the percent inhibition of light emission compared to control. […]
Format: functional
Settings: sporozoite; for IC90: read-out: LUCIFERASE INFECTION ASSAY - IC90
[1] = read-out: LUCIFERASE INFECTION ASSAY - IC50

## O=C(Nc1ncccc1O)c1ccc(N2CCOCC2)nc1
FFLUC_HILL_SLOPE 6.17, FFLUC_R_SQUARED 0.111, PBLUC_HILL_SLOPE 1.25, PBLUC_R_SQUARED 0.907, read-out: LUCIFERASE INFECTION ASSAY - IC50
  pIC50: 6.15
  IC90: 4.08 µM

## CCn1c2ccc(Cl)cc2c2cc(Cl)ccc21
[1]
  pIC50: < 4.90
  IC90: > 12.5 µM

## CN(C)c1ccc(C(c2ccc(N(C)C)cc2)c2ccc(N(C)C)c(C#N)c2F)cc1
FFLUC_HILL_SLOPE 2.97, FFLUC_R_SQUARED 0.397, HEPG2TOX_HILL_SLOPE 0.327, HEPG2TOX_R_SQUARED 0.744, PBLUC_HILL_SLOPE 0.914, PBLUC_R_SQUARED 0.465, read-out: LUCIFERASE INFECTION ASSAY - IC50
  pIC50: 5.22
  IC90: > 7.92 µM

## NC(=O)NC(CC(=O)Nc1ccc2c(c1)-c1ccccc1C2)c1ccccc1 (centres undefined)
HEPG2TOX_HILL_SLOPE 11.3, HEPG2TOX_R_SQUARED 0.75, PBLUC_HILL_SLOPE 2.98, PBLUC_R_SQUARED 0.106, read-out: LUCIFERASE INFECTION ASSAY - IC50
  pIC50: 5.17
  IC90: > 10 µM

## Cc1ccc(NC2=C(Cl)C(=O)c3ccccc3C2=O)cc1
HEPG2TOX_HILL_SLOPE 4.14, HEPG2TOX_R_SQUARED 0.984, PBLUC_HILL_SLOPE 5.35, PBLUC_R_SQUARED 0.565, read-out: LUCIFERASE INFECTION ASSAY - IC50
  pIC50: 5.29
  IC90: 7.81 µM

## O=C(Nc1ccc2nc(Cc3ccccc3)nn2c1)c1cccc(Cl)c1
HEPG2TOX_HILL_SLOPE 2.06, HEPG2TOX_R_SQUARED 0.967, PBLUC_HILL_SLOPE 11.3, PBLUC_R_SQUARED 0.609, read-out: LUCIFERASE INFECTION ASSAY - IC50
  pIC50: 5.91
  IC90: 1.48 µM

## Oc1ccc(Br)c(/C=C/c2ccc3cccc(O)c3n2)c1
HEPG2TOX_HILL_SLOPE 7.26, HEPG2TOX_R_SQUARED 0.426, read-out: LUCIFERASE INFECTION ASSAY - IC50
  pIC50: < 5.02
  IC90: > 9.64 µM

## OC(COc1cccc(C(F)(F)F)c1)CN1CCN(c2nc(-c3ccccc3)ns2)CC1 (centres undefined)
PBLUC_HILL_SLOPE 15.4, PBLUC_R_SQUARED 0.391, read-out: LUCIFERASE INFECTION ASSAY - IC50
  pIC50: 5.17
  IC90: > 7.1 µM

## Clc1nc2ccccc2cc1/C=N/C1CCCCC1
[1]
  pIC50: < 5.00
  IC90: > 10 µM

## COc1ccc(-c2cnc3cnc(-c4ccc5c(ccn5C)c4)cn23)cn1
HEPG2TOX_HILL_SLOPE 1.17, HEPG2TOX_R_SQUARED 0.992, PBLUC_HILL_SLOPE 12.5, PBLUC_R_SQUARED 0.775, read-out: LUCIFERASE INFECTION ASSAY - IC50
  pIC50: 5.99
  IC90: 1.22 µM

## Cc1ccc(C(=O)C(c2ccc(C)cc2)N2C(=O)NC(C)(c3ccccc3)C2=O)cc1 (centres undefined)
FFLUC_HILL_SLOPE 10.4, FFLUC_R_SQUARED 0.468, read-out: LUCIFERASE INFECTION ASSAY - IC50
  pIC50: < 5.00
  IC90: > 10 µM

## O=C(NCc1cc(C(F)(F)F)cc(C(F)(F)F)c1)c1ccc(Cl)c(Cl)c1
[1]
  pIC50: < 5.10
  IC90: > 7.93 µM

## Oc1ccc(/C=N/n2c(-c3ccco3)cs/c2=N\c2ccc(F)cc2F)c(O)c1
PBLUC_HILL_SLOPE 8.45, PBLUC_R_SQUARED 0.234, read-out: LUCIFERASE INFECTION ASSAY - IC50
  pIC50: 5.05
  IC90: > 10 µM

## CC(C)c1ccc(CS(=O)(=O)C(C)C(=O)NC2CCCC2)cc1 (centres undefined)
[1]
  pIC50: < 5.00
  IC90: > 10 µM

## COc1ccc(Oc2sccc2[N+](=O)[O-])cc1
FFLUC_HILL_SLOPE 0.766, FFLUC_R_SQUARED 0.0624, read-out: LUCIFERASE INFECTION ASSAY - IC50
  pIC50: < 4.88
  IC90: > 13.1 µM

## Cc1nc(N2CCCCC2)sc1C(=O)c1ccc(SCc2cc(Cl)cc3c2OCOC3)c([N+](=O)[O-])c1
[1]
  pIC50: < 5.00
  IC90: > 10 µM

## COc1ccc(O)c(C(=O)c2c[nH]c(C(=O)N3CCCC3)c2)c1
HEPG2TOX_HILL_SLOPE 3.52, HEPG2TOX_R_SQUARED 0.659, PBLUC_HILL_SLOPE 0.979, PBLUC_R_SQUARED 0.275, read-out: LUCIFERASE INFECTION ASSAY - IC50
  pIC50: < 5.00
  IC90: > 10 µM

## Cc1nc2ccccc2n1CCNC(=O)c1ccc(Cl)cc1NC(=O)c1cccs1
PBLUC_HILL_SLOPE 48.3, PBLUC_R_SQUARED 0.528, read-out: LUCIFERASE INFECTION ASSAY - IC50
  pIC50: 5.34
  IC90: 4.77 µM

## CC(=O)Nc1ccc(C(=S)NCCCN2CCCC2=O)cc1
[1]
  pIC50: < 5.00
  IC90: > 10 µM

## Cc1cc(C(=O)COC(=O)c2ccccc2C(F)(F)F)c(C)n1Cc1ccccc1Cl
HEPG2TOX_HILL_SLOPE 0.164, HEPG2TOX_R_SQUARED 0.816, PBLUC_HILL_SLOPE 1.63, 0.884, PBLUC_R_SQUARED 0.848, 0.800, read-out: LUCIFERASE INFECTION ASSAY - IC50
  pIC50: 6.16
  IC90: 3.52 µM

## Cc1sc(NC(=O)c2ccc(Cn3cncn3)cc2)nc1-c1ccc(Br)cc1
HEPG2TOX_HILL_SLOPE 2.39, HEPG2TOX_R_SQUARED 0.794, PBLUC_HILL_SLOPE 2.3, PBLUC_R_SQUARED 0.342, read-out: LUCIFERASE INFECTION ASSAY - IC50
  pIC50: < 5.00
  IC90: > 10 µM

## CN1CCN(S(=O)(=O)c2ccc(N3CCC(c4nc5ccccc5s4)CC3)nc2)CC1
PBLUC_HILL_SLOPE 13.7, PBLUC_R_SQUARED 0.493, read-out: LUCIFERASE INFECTION ASSAY - IC50
  pIC50: 5.02
  IC90: > 10 µM

## CCCCn1c(N)c(N(CC(C)C)C(=O)c2cc(Br)c(Br)s2)c(=O)[nH]c1=O
[1]
  pIC50: 5.08
  IC90: 9.14 µM

## Cc1cccc(COc2cccc(C(=O)Nc3cccc(Cn4ccnc4)c3)c2)c1
HEPG2TOX_HILL_SLOPE 5.55, HEPG2TOX_R_SQUARED 0.818, PBLUC_HILL_SLOPE 3.46, PBLUC_R_SQUARED 0.301, read-out: LUCIFERASE INFECTION ASSAY - IC50
  pIC50: 5.17
  IC90: > 10 µM

## COc1ccc(OCCN2CCN(c3ccc(S(=O)(=O)NC(C)C)cn3)CC2)cc1
[1]
  pIC50: < 5.00
  IC90: > 10 µM

## COC(=O)/C=C/c1ccc(OCC(O)COc2ccc(C(C)(C)C)cc2)c(OC)c1 (centres undefined)
[1]
  pIC50: < 5.00
  IC90: > 10 µM

## CC(=O)Nc1ccc(Oc2ccnc3cc(Cl)ccc23)cc1
PBLUC_HILL_SLOPE 1.43, PBLUC_R_SQUARED 0.691, read-out: LUCIFERASE INFECTION ASSAY - IC50
  pIC50: 5.46
  IC90: > 10 µM

## O=C(CSc1nnnn1-c1ccccc1)N1N=C2/C(=C/c3ccc(F)cc3)CCCC2C1c1ccc(F)cc1 (centres undefined)
FFLUC_HILL_SLOPE 14.4, FFLUC_R_SQUARED 0.768, PBLUC_HILL_SLOPE 7.48, PBLUC_R_SQUARED 0.336, read-out: LUCIFERASE INFECTION ASSAY - IC50
  pIC50: 5.09
  IC90: > 10 µM

## O=c1[nH]c2ccccc2c(=O)n1CC1(N2CCCCC2)CCCCC1
[1]
  pIC50: < 5.00
  IC90: > 10 µM

## Cn1/c(=N/N=C2\C(=O)N(Cc3ccccc3)c3ccccc32)sc2ccccc21
[1]
  pIC50: < 5.00
  IC90: > 10 µM

## CCCCN(C(=O)CSc1nnc(-c2ccc(OC)cc2)n1C(C)C)c1c(N)n(CCCC)c(=O)[nH]c1=O
[1]
  pIC50: < 5.00
  IC90: > 10 µM

## COc1cc(/C=C/C(=O)OCC(=O)Nc2cc(Cl)cc(Cl)c2)cc(OC)c1OC
[1]
  pIC50: < 5.00
  IC90: > 10 µM

## CC1(C)CC(=O)C=C(Nc2ccc(Oc3ccccc3)cc2)C1
PBLUC_HILL_SLOPE 1.19, PBLUC_R_SQUARED 0.428, read-out: LUCIFERASE INFECTION ASSAY - IC50
  pIC50: 5.66
  IC90: > 10.7 µM

## Cc1nnsc1C(=O)Nc1cc(C(F)(F)F)cc(C(F)(F)F)c1
HEPG2TOX_HILL_SLOPE 1.48, HEPG2TOX_R_SQUARED 0.897, PBLUC_HILL_SLOPE 8.57, PBLUC_R_SQUARED 0.681, read-out: LUCIFERASE INFECTION ASSAY - IC50
  pIC50: 5.97
  IC90: 1.4 µM

## CN(C)c1cccc(-c2cnc3cnc(-c4ccc(C(=O)NC5CC5)cc4)cn23)c1
PBLUC_HILL_SLOPE 2.95, PBLUC_R_SQUARED 0.0505, read-out: LUCIFERASE INFECTION ASSAY - IC50
  pIC50: 5.12
  IC90: > 8.3 µM

## Brc1ccc(-[n+]2nc(-c3ccccc3)nn2-c2nn[nH]n2)cc1
HEPG2TOX_HILL_SLOPE 1.48, HEPG2TOX_R_SQUARED 0.648, PBLUC_HILL_SLOPE 2.42, 13.8, PBLUC_R_SQUARED 0.208, 0.342, read-out: LUCIFERASE INFECTION ASSAY - IC50
  pIC50: 5.59
  IC90: 4.45 µM

## O=C(COC(=O)c1ccc2[nH]c3c(c2c1)CCCC3)c1ccc2c(c1)OCCO2
PBLUC_HILL_SLOPE 11.3, PBLUC_R_SQUARED 0.654, read-out: LUCIFERASE INFECTION ASSAY - IC50
  pIC50: 5.09
  IC90: 9.92 µM

## CC1CN(C(=O)c2ccc(S(=O)(=O)Nc3ccccc3F)cc2)CC(C)O1 (centres undefined)
PBLUC_HILL_SLOPE 1.2, PBLUC_R_SQUARED 0.687, read-out: LUCIFERASE INFECTION ASSAY - IC50
  pIC50: 6.02
  IC90: 5.97 µM

## Cc1cc(C)n(-c2nc(-c3ccccc3)cc(N(C)CCO)n2)n1
HEPG2TOX_HILL_SLOPE 0.522, HEPG2TOX_R_SQUARED 0.395, PBLUC_HILL_SLOPE 14.2, PBLUC_R_SQUARED 0.716, read-out: LUCIFERASE INFECTION ASSAY - IC50
  pIC50: 5.53
  IC90: 3.45 µM

## CCN(C(=O)CSc1nnc(SCC(=O)N(CC)C2CCCCC2)s1)C1CCCCC1
[1]
  pIC50: < 5.00
  IC90: > 10 µM

## COc1cc(OC)c(NC(=O)CN2CCC(c3c[nH]c4ccccc34)CC2)cc1Cl
HEPG2TOX_HILL_SLOPE 7.32, HEPG2TOX_R_SQUARED 0.598, PBLUC_HILL_SLOPE 4.32, PBLUC_R_SQUARED 0.304, read-out: LUCIFERASE INFECTION ASSAY - IC50
  pIC50: 5.09
  IC90: > 10 µM

## O=C(Nc1nc2ccccn2c1C(=O)NC1CCCCC1)c1cc(F)ccc1F
HEPG2TOX_HILL_SLOPE 1.14, HEPG2TOX_R_SQUARED 0.869, PBLUC_HILL_SLOPE 2.93, PBLUC_R_SQUARED 0.682, read-out: LUCIFERASE INFECTION ASSAY - IC50
  pIC50: 6.00
  IC90: 2.12 µM
